Results on 25 compounds are retold here after patent US6936607B2, “2,4,6-Triaminopyrimidines for the treatment of depression and/or anxiety” (H. Lunobeck A/S, priority 2002, dated 2005).

For this assay, the target named is T1, human GalR3 receptor (Homo sapiens, UniProt O60755).
T1 construct: expressed in transfected cells; host or cells: mouse fibroblast LM(tk-) cells, stably transfected; membranes
T1 sequence (O60755 1-368): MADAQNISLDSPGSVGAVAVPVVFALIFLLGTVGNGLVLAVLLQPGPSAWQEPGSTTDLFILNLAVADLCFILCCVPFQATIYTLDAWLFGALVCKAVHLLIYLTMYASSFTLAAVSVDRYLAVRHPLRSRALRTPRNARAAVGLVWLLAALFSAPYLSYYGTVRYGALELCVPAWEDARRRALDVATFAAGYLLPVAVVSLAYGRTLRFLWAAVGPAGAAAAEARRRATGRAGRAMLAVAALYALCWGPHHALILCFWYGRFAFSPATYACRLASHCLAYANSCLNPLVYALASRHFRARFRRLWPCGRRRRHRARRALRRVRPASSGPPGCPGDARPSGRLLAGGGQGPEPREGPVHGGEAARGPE
Briefly: Radioligand binding assay at cloned human GalR3 receptor. Particulars: Binding Data; membranes from LM(tk-) cells stably transfected with the human GalR3 receptor. As to the method: LM(tk-) cells were stably transfected with the human GalR3 receptor. cDNAs for the human and rat GalR3 receptors were transfected with a G-418 resistant gene into the mouse fibroblast LM(tk-) cell line by a calcium phosphate transfection method (Cullen, 1987). Membranes were harvested from stably transfected LM(tk-) cells. Adherent cells were washed twice in ice-cold phosphate buffered saline (138 mM NaCl, 8.1 mM Na2HPO4, 2.5 mM KCl, 1.2 mM KH2PO4, 0.9 mM CaCl2, 0.5 mM MgCl2, pH 7.4) and lysed by sonication in ice-cold sonication buffer (20 mM Tris-HCl, 5 mM EDTA, pH 7.7). Large particles and debris were cleared by low speed centrifugation (200×g, 5 min, 4° C.). Membranes were collected from the supernatant fraction by centrifugation (32,000×g, 18 min, 4° C.), washed with ice-cold hypotonic buffer, and collected again by centrifugation (32,000×g, 18 min, 4° C.). The final membrane pellet was resuspended by sonication into a small volume of ice-cold binding buffer (˜1 ml for every 5 plates: 10 mM NaCl, 20 mM HEPES, 0.22 mM KH2PO4, 1.26 mM CaCl2, 0.81 mM MgSO4, pH 7.4). Protein concentration was measured by the Bradford method (Bradford, 1976) using Bio-Rad Reagent, with bovine serum albumin as a standard. Membranes were held on ice for up to one hour and used fresh, or flash frozen and stored in liquid nitrogen. Membranes were prepared similarly from CHO cells. The methods to obtain the cDNA of the receptors, express said receptors in heterologous systems, and carry out assays to determine binding affinity are described as follows. Binding assays were performed according to the following published method: human GALR3 (PCT International Publication No. WO 02/060392).
For orientation: Ki means the equilibrium dissociation constant of an inhibitor or competing ligand from its target. A low value points to a stronger hold on the target. In turn, `CN(C)c1cc(Nc2ccc(SC(F)(F)F)c(Cl)c2)nc(N2CCN(c3ccccc3F)CC2)n1` [Example 14, N^4-{3-CHLORO-4-[(TRIFLUOROMETHYL)SULFANYL]PHENYL}-2-[4-(2-FLUOROPHENYL)-1-PIPERAZINYL]-N^6,N^6-DIMETHYL-4,6-PYRIMIDINEDIAMINE] came in with a Ki of 158 nM.

`COc1cccc(Nc2cc(N(C)C)nc(N3CCN(c4ccc(Cl)cc4)CC3)n2)c1` [Example 15, 2-[4-(4-CHLOROPHENYL)-1-PIPERAZINYL]-N^4-(3-METHOXYPHENYL)-N^6,N^6-DIMETHYL-4,6-PYRIMIDINEDIAMINE] displayed a Ki of 88 nM.

`CN(C)c1cc(Nc2ccc(Cl)c(Cl)c2)nc(N2CCN(c3cccc(Cl)c3)CC2)n1` [Example 16, 2-[4-(3-CHLOROPHENYL)-1-PIPERAZINYL]-N^4-(3,4-DICHLOROPHENYL)-N^6,N^6-DIMETHYL-4,6-PYRIMIDINEDIAMINE] displayed an inhibition constant Ki of 34 nM.

With `Cc1ccc(Nc2cc(N(C)C)nc(N3CCN(c4ccccc4Cl)CC3)n2)cc1C` [Example 17, 2-[4-(2-CHLOROPHENYL)-1-PIPERAZINYL]-N^4-(3,4-DIMETHYLPHENYL)-N^6,N^6-DIMETHYL-4,6-PYRIMIDINEDIAMINE], the Ki stood at 57 nM.

Turning to `CN(C)c1cc(Nc2ccc(C3CCCCC3)cc2)nc(N2CCN(c3ccccc3F)CC2)n1` [Example 18, N^4-(4-CYCLOHEXYLPHENYL)-2-[4-(2-FLUOROPHENYL)-1-PIPERAZINYL]-N^6,N^6-DIMETHYL-4,6-PYRIMIDINEDIAMINE], the Ki was found to be 46 nM.

Compound `Cc1ccc(Nc2cc(N(C)C)nc(N3CCN(c4ccccc4F)CC3)n2)cc1C` [Example 19, N^4-(3,4-DIMETHYLPHENYL)-2-[4-(2-FLUOROPHENYL)-1-PIPERAZINYL]-N^6,N^6-DIMETHYL-4,6-PYRIMIDINEDIAMINE] displayed a Ki of 118 nM.

With `CN(C)c1cc(Nc2ccc(SC(F)(F)F)c(Cl)c2)nc(N2CCN(c3cccc(Cl)c3)CC2)n1` [Example 20, 2-[4-(3-CHLOROPHENYL)-1-PIPERAZINYL]-N^4-{3-CHLORO-4-[(TRIFLUOROMETHYL) SULFANYL]PHENYL}-N^6,N^6-DIMETHYL-4,6-PYRIMIDINEDIAMINE], the affinity corresponds to a Ki of 318 nM.

In the case of `CN(C)c1cc(Nc2ccc(Cl)c(Cl)c2)nc(N2CCN(c3ccccc3Cl)CC2)n1` [Example 21, 2-[4-(2-CHLOROPHENYL)-1-PIPERAZINYL]-N^4-(3,4-DICHLOROPHENYL)-N^6,N^6-DIMETHYL-4,6-PYRIMIDINEDIAMINE], the Ki was 63 nM.

`CN(C)c1cc(Nc2ccc(SC(F)(F)F)c(Cl)c2)nc(N2CCN(c3ccccc3Cl)CC2)n1` [Example 22, 2-[4-(2-CHLOROPHENYL)-1-PIPERAZINYL]-N^4-{3-CHLORO-4-[(TRIFLUOROMETHYL) SULFANYL]PHENYL}-N^6,N^6-DIMETHYL-4,6-PYRIMIDINE DIAMINE] showed a Ki of 182 nM.

For the compound `Cc1ccc(Nc2cc(N(C)C)nc(N3CCN(c4ccc(Cl)cc4)CC3)n2)cc1C` [Example 23, 2-[4-(4-CHLOROPHENYL)-1-PIPERAZINYL]-N^4-(3,4-DIMETHYLPHENYL)-N^6,N^6-DIMETHYL-4,6-PYRIMIDINEDIAMINE], the Ki came to 129 nM.

Take `CN(C)c1cc(Nc2cccc(OCc3ccccc3)c2)nc(N2CCN(c3ccccc3F)CC2)n1` [Example 24, N^4-[3-(BENZYLOXY)PHENYL]-2-[4-(2-FLUOROPHENYL)-1-PIPERAZINYL]-N^6,N^6-DIMETHYL-4,6-PYRIMIDINEDIAMINE]: the Ki was determined as 20 nM.

Turning to `CN(C)c1cc(Nc2cccc(OCc3ccccc3)c2)nc(N2CCN(c3ccccc3Cl)CC2)n1` [Example 25, N^4-[3-(BENZYLOXY)PHENYL]-2-[4-(2-CHLOROPHENYL)-1-PIPERAZINYL]-N^6,N^6-DIMETHYL-4,6-PYRIMIDINEDIAMINE], the Ki was found to be 16 nM.

The compound `Cc1ccc(Nc2cc(N(C)C)nc(N3CCN(c4ccccn4)CC3)n2)cc1NC(C)C` [Example 26, N^4-[3-(ISOPROPYLAMINO)-4-METHYLPHENYL]-N^6,N^6-DIMETHYL-2-[4-(2-PYRIDINYL)-1-PIPERAZINYL]-4,6-PYRIMIDINEDIAMINE] showed a Ki of 246 nM.

Regarding `CN(C)c1cc(Nc2cccc(OCc3ccccc3)c2)nc(N2CCN(c3cccc(Cl)c3)CC2)n1` [Example 27, N^4-[3-(BENZYLOXY)PHENYL]-2-[4-(3-CHLOROPHENYL)-1-PIPERAZINYL]-N^6,N^6-DIMETHYL-4,6-PYRIMIDINEDIAMINE], the Ki turned out to be 28 nM.

The compound `CN(C)c1cccc(Nc2cc(N(C)C)nc(N3CCN(c4ccccn4)CC3)n2)c1` [Example 28, N^4-[3-(DIMETHYLAMINO)PHENYL]-N^6,N^6-DIMETHYL-2-[4-(2-PYRIDINYL)-1-PIPERAZINYL]-4,6-PYRIMIDINEDIAMINE] had a Ki of 417 nM.

Compound `CN(C)c1cc(Nc2ccc(Cl)c(Cl)c2)nc(N2CCN(c3ccccc3F)CC2)n1` [Example 29, N^4-(3,4-DICHLOROPHENYL)-2-[4-(2-FLUOROPHENYL)-1-PIPERAZINYL]-N^6,N^6-DIMETHYL-4,6-PYRIMIDINEDIAMINE] returned a Ki of 27 nM.

As to `CN(C)c1cc(Nc2ccc(SC(F)(F)F)c(Cl)c2)nc(N2CCN(c3ccc(Cl)cc3)CC2)n1` [Example 30, 2-[4-(4-CHLOROPHENYL)-1-PIPERAZINYL]-N^4-{3-CHLORO-4-[TRIFLUOROMETHYL) SULFANYL]PHENYL}-N^6,N^6-DIMETHYL-4,6-PYRIMIDINEDIAMINE], the affinity, expressed as Ki, was 138 nM.

The compound `CN(C)c1cc(Nc2cccc(OCc3ccccc3)c2)nc(N2CCN(c3ccc(Cl)cc3)CC2)n1` [Example 31, N^4-[3-(BENZYLOXY)PHENYL]-2-[4-(4-CHLOROPHENYL)-1-PIPERAZINYL]-N^6,N^6-DIMETHYL-4,6-PYRIMIDINEDIAMINE] registered a Ki of 26 nM.

`Cc1ccc(Nc2cc(N(C)C)nc(N3CCN(c4cccc(Cl)c4)CC3)n2)cc1C` [Example 32, 2-[4-(3-CHLOROPHENYL)-1-PIPERAZINYL]-N^4-(3,4-DIMETHYLPHENYL)-N^6,N^6-DIMETHYL-4,6-PYRIMIDINEDIAMINE]: the Ki came out at 97 nM.

On to `CCNc1cccc(Nc2cc(N(C)C)nc(N3CCN(Cc4ccccc4)CC3)n2)c1` [Example 33, 2-(4-BENZYL-1-PIPERAZINYL)-N^4-[3-(ETHYLAMINO)PHENYL]N^6,N^6-DIMETHYL-4,6-PYRIMIDINEDIAMINE], for which the affinity, expressed as Ki, was 942 nM.

Compound `C[C@@H]1CN(c2nc(Nc3cccc(OCc4ccccc4)c3)cc(N(C)C)n2)C[C@H](C)O1` [Example 34, N^4-[3-(BENZYLOXY)PHENYL]-2-[CIS-2,6-DIMETHYLMORPHOLINYL]-N^6,N^6-DIMETHYL-4,6-PYRIMIDINEDIAMINE] showed a Ki of 32 nM.

`CN(C)c1cc(Nc2cccc(OCc3ccccc3)c2)nc(N(C)CC2CCCO2)n1` (stereo not shown) [Example 35, N^4-[3-(BENZYLOXY)PHENYL]-N^2,N^6,N^6-TRIMETHYL-N^2-(TETRAHYDRO-2-FURANYLMETHYL)-2,4,6-PYRIMIDINETRIAMINE]: the Ki turned out to be 42 nM.

`CN(C)c1cc(Nc2cccc(OCc3ccccc3)c2)nc(N2CCCCC2)n1` [Example 36, N^4-[3-(BENZYLOXY)PHENYL]-N^6,N^6-DIMETHYL-2-(1-PIPERIDINYL)-4,6-PYRIMIDINEDIAMINE] gave a Ki of 23 nM.

As to `CN(C)c1cc(Nc2cccc(OCc3ccccc3)c2)nc(N2CCCC2)n1` [Example 37, N^4-[3-(BENZYLOXY)PHENYL]-N^6,N^6-DIMETHYL-2-(1-PYRROLIDINYL)-4,6-PYRIMIDINEDIAMINE], the Ki was determined as 59 nM.

`CC1CC(C)CN(c2nc(Nc3cccc(OCc4ccccc4)c3)cc(N(C)C)n2)C1` (stereo not shown) [Example 38, N^4-[3-(BENZYLOXY)PHENYL]-2-(3,5-DIMETHYL-1-PIPERIDINYL)-N^6,N^6-DIMETHYL-4,6-PYRIMIDINEDIAMINE]: the Ki was 15 nM.
